In patent publication US6358987B1, “Metalloproteinase inhibitors” (British Biotech Pharmaceuticals Limited, priority 1997, dated 2002):

For COc1ccc(S(=O)(=O)N(C)C[C@H](C(=O)NO)[C@@H](CC(C)C)C(=O)N[C@H](CO)Cc2ccccc2)cc1 [Example 8, N^4-(1S-Benzyl-2-hydroxy-ethyl)-N^1-hydroxy-3R-isobutyl-2S-{[(4-methoxy-benzenesulfonyl)-methyl-amino]-methyl}-succinamide], the melting point was 196 to 203 °C.

In the case of COc1ccc(S(=O)(=O)N(C)C[C@H](C(=O)NO)[C@@H](CC(C)C)C(=O)N[C@H](CO)Cc2c[nH]cn2)cc1 [Example 9], the melting point is reported as 208 to 209 °C.

COc1ccc(S(=O)(=O)N(C)C[C@H](C(=O)NO)[C@@H](CC2CCCC2)C(=O)N[C@H](CO)C(C)(C)C)cc1 [Example 10, 3R-Cyclopentylmethyl-N^1-hydroxy-N^4-(1S-hydroxymethyl-2,2-dimethyl-propyl)-2S-{[(4-methoxy-benzenesulfonyl)-methyl-amino]-methyl}-succinamide] gave a melting point of 181 to 184 °C.

With CC(C)C[C@@H](C(=O)N[C@H](CO)Cc1ccc(O)cc1)[C@H](CN(C)S(C)(=O)=O)C(=O)NO [Example 6, N^1-Hydroxy-N^4-[2-hydroxy-1S-(4-hydroxy-benzyl)-ethyl]-3R-isobutyl-2S-[(methanesulfonyl-methyl-amino)-methyl]-succinamide] the melting point was 125 to 128 °C.

COc1ccc(S(=O)(=O)N(C)C[C@H](C(=O)NO)[C@@H](CC(C)C)C(=O)N[C@H](C(=O)N(C)C)C(C)(C)C)cc1 [Example 7, N^4-(1S-Dimethylcarbamoyl-2,2-dimethyl-propyl)-N^1-hydroxy-3R-isobutyl-2S-{[(4-methoxy-benzenesulfonyl)-methyl-amino]-methyl}-succinamide] gave a melting point of 217 to 222 °C.

COc1ccc(S(=O)(=O)N(C)C[C@H](C(=O)NO)[C@@H](CCCc2ccc(-c3ccccc3)cc2)C(=O)N[C@H](CO)C(C)(C)C)cc1 [Example 13, 3R-(3-Biphenyl4-yl-propyl)-N^1-hydroxy-N^4-(1S-hydroxymethyl-2,2-dimethyl-propyl)-2S-{[(4-methoxy-benzenesulfonyl)-methyl-amino]-methyl}-succinamide] gave a melting point of 226 to 228 °C.

Work on COc1ccc(S(=O)(=O)N(C)C[C@H](C(=O)NO)[C@@H](CCCc2ccc(-c3ccccc3)cc2)C(=O)N[C@H](CO)Cc2ccccc2)cc1 [Example 14, N^4-(1S-Benzyl-2-hydroxy-ethyl)-3R-(3-biphenyl-4-yl-propyl)-N^1-hydroxy-2S-{[(4-methoxy-benzenesulfonyl)-methyl-amino]-methyl}-succinamide] yielded a melting point of 245 to 247 °C.

Work on COCCOCCNC(=O)[C@@H](NC(=O)[C@H](CC(C)C)[C@H](CN(C)S(C)(=O)=O)C(=O)NO)C(C)(C)C [Example 2, N^1-Hydroxy-3R-isobutyl-2R-[(methanesulfonyl-methyl-amino)-methyl]-N^4-{1S-[2-(2-methoxy-ethoxy)-ethyl-carbamoyl]-2,2-dimethyl-propyl}-succinamide] yielded a melting point of 192 to 193 °C.

For CC(C)C[C@@H](C(=O)N[C@H](C(=O)N(C)C)C(C)(C)C)[C@H](CN(C)S(C)(=O)=O)C(=O)NO [Example 1], the melting point was 216 to 218 °C.

CC(C)C[C@@H](C(=O)N[C@H](CO)Cc1c[nH]cn1)[C@H](CN(C)S(C)(=O)=O)C(=O)NO [Example 5, N^1-Hydroxy-N^4-[2-hydroxy-1S-(1H-imidazol-4-ylmethyl)-ethyl]-3R-isobutyl-2S-[(methanesulfonyl-methyl-amino)-methyl]-succinamide] gave a melting point of 219 to 221 °C.

With CC(C)C[C@@H](C(=O)N[C@H](CO)Cc1ccccc1)[C@H](CN(C)S(C)(=O)=O)C(=O)NO [Example 3, N^4-(1S-Benzyl-2-hydroxy-ethyl)-N^1-hydroxy-3R-isobutyl-2R-[(methanesulfonyl-methyl-amino)-methyl]-succinamide] the melting point was 200 to 202 °C.

Compound CC(C)C[C@@H](C(=O)N[C@H](CO)C(C)(C)C)[C@H](CN(C)S(C)(=O)=O)C(=O)NO [Example 4, N^1-Hydroxy-N^4-(1S-hydroxymethyl-2,2-dimethylpropyl)-3R-isobutyl-2R-[(methanesulfonyl-methyl-amino)-methyl]-succinamide] has a melting point of 167 to 169 °C.

With CN(C[C@H](C(=O)NO)[C@@H](CCCc1ccc(-c2ccccc2)cc1)C(=O)N[C@H](CO)Cc1ccccc1)S(C)(=O)=O [Example 12, N^4-(1S-Benzyl-2-hydroxy-ethyl)-3R-(3-biphenyl-4-yl-propyl)-N^1-hydroxy-2S-[(methanesulfonyl-methyl-amino)-methyl]-succinamide] the melting point was 201 to 207 °C.
